Measurements from article PMC3235409 (Bioorganic & medicinal chemistry, 2011).

Legend:
[1] = system: caspase-3/7 activity in HT29 cells; assay: Caspase 3/7 activity assay; assay type: cell-based, human; details: HT29, 1.25 – 5 µM, 24 h
HT29 cells = assay: TUNEL assay; assay type: cell-based, human; details: HT29, 5 µM, 48 h
[2] = system: Akt (phospho-Akt and total Akt) in HT29 cells; assay: Western analysis of phospho-Akt and total Akt; assay type: cell-based, human; details: 24 h, Western blot; for effect on Akt expression and phosphorylation, 1 µM: HT29, 1 µM; for effect on Akt expression and phosphorylation: HT29, 1 or 2 µM (not specified)
[3] = system: purified bovine brain tubulin; assay: Fluorescence-based tubulin polymerization assay; assay type: biochemical; details: 10 µM, cell-free

| Compound | caspase-3/7 activity relative to DMSO vehicle treated cells [1] | TUNEL staining (DNA fragmentation) (HT29 cells) | effect on Akt expression and phosphorylation, 1 µM [2] | effect on Akt expression and phosphorylation, 2 µM ([2]; HT29, 2 µM) | effect on Akt expression and phosphorylation [2] | inhibition of the rate of microtubule polymerization ([3]; 1 h at 37 °C) | effect on microtubule formation versus vehicle control [3] |
| --- | --- | --- | --- | --- | --- | --- | --- |
| N#C[Se]CCCN1C(=O)C(=O)c2cc(Br)cc(Br)c21 [Compound 5, 5,7-Dibromo-N-(3’-selenocyanatopropyl)isatin] | significant dose dependent increases in caspase-3/7 activity |  |  |  |  |  |  |
| O=C1C(=O)N(CCCN=C=S)c2c(Br)cc(Br)cc21 [Compound 6, 5,7-Dibromo-N-(3’-isothiocyanatopropyl)isatin] | significant dose dependent increases in caspase-3/7 activity | significant number of TUNEL-positive colon cancer cells | very little effect on either expression or phosphorylation of Akt | both levels and phosphorylation state of Akt were reduced |  |  |  |
| N#CSCc1ccc(CN2C(=O)C(=O)c3cc(Br)cc(Br)c32)cc1 [Compound 11, 5,7-Dibromo-N-(p-thiocyanomethylbenzyl)isatin] | significant dose dependent increases in caspase-3/7 activity | significant number of TUNEL-positive colon cancer cells | reduced Akt protein levels and strongly suppressed the phosphorylation of Akt |  | Akt levels were reduced but the phosphorylation was virtually eliminated | about 71% |  |
| O=C1C(=O)N(Cc2ccc(CN=C=S)cc2)c2c(Br)cc(Br)cc21 [Compound 13, 5,7-Dibromo-N-(p-isothiocyanatomethylbenzyl)isatin] | significant dose dependent increases in caspase-3/7 activity |  | reduced Akt protein levels and strongly suppressed the phosphorylation of Akt |  | Akt levels were reduced but the phosphorylation was virtually eliminated |  |  |
| CC[C@]1(O)C[C@@H]2CN(CCc3c([nH]c4ccccc34)[C@@](C(=O)OC)(c3cc4c(cc3OC)N(C)[C@H]3[C@@](O)(C(=O)OC)[C@H](OC(C)=O)[C@]5(CC)C=CCN6CC[C@]43[C@@H]65)C2)C1.O=S(=O)(O)O [Vinblastine, vinblastine sulfate] |  |  |  |  |  |  | strongly inhibited microtubule formation |
| CC(=O)O[C@H]1C(=O)[C@@]2(C)[C@H]([C@H](OC(=O)c3ccccc3)[C@]3(O)C[C@H](OC(=O)[C@H](O)[C@@H](NC(=O)c4ccccc4)c4ccccc4)C(C)=C1C3(C)C)[C@]1(OC(C)=O)CO[C@@H]1C[C@@H]2O [paclitaxel] |  |  |  |  |  |  | stabilized microtubules |
